# Results as given in article PMC12396409, “Screening and hit evaluation of a microbial metabolite library against the pathogenic Plasmodium falciparum and Toxoplasma gondii parasites” (International Journal for Parasitology: Drugs and Drug …, 2025).
# Where two headings read alike, the source gives them in different places.
# Columns and labels:
# [1] = test system: P. falciparum 3D7 parasites; assay: P. falciparum growth inhibition assay, 1-cycle (72 h treatment), SYBR DNA staining (library screen at 2 μg/mL and dose-response); format: cell-based, Plasmodium falciparum
# [2] = test system: T. gondii RH strain (RH-Tub-eYFP) tachyzoites; assay: microbe, parasite or virus in culture; format: cell-based, Toxoplasma gondii
# [3] = test system: P. falciparum 3D7 parasites; assay: P. falciparum growth inhibition assay, 2-cycle (120 h treatment), delayed-death screen and dose-response; format: cell-based, Plasmodium falciparum
# [4] = P. falciparum 3D7, 72 h, library screen at 2 μg/mL, % growth, replicate 1
# [5] = P. falciparum 3D7, 72 h, library screen at 2 μg/mL, % growth, replicate 2
# [6] = T. gondii RH, 72 h, library screen at 2 μg/mL, % growth, replicate 1
# [7] = T. gondii RH, 72 h, library screen at 2 μg/mL, % growth, replicate 2
# [8] = P. falciparum 3D7, 120 h, library screen at 2 μg/mL, % growth, replicate 1
# [9] = P. falciparum 3D7, 120 h, library screen at 2 μg/mL, % growth, replicate 2
# [10] = P. falciparum, 72 h, screen at 2 μg/mL, replicate 1
# [11] = P. falciparum, 72 h, screen at 2 μg/mL, replicate 2
# [12] = T. gondii, 72 h, screen at 2 μg/mL, replicate 1
# [13] = T. gondii, 72 h, screen at 2 μg/mL, replicate 2
# [14] = P. falciparum, 120 h, screen at 2 μg/mL, replicate 1
# [15] = P. falciparum, 120 h, screen at 2 μg/mL, replicate 2
# [16] = library screen at 2 μg/mL, 72 h, % growth, replicate 1
# [17] = library screen at 2 μg/mL, 72 h, % growth, replicate 2
# [18] = Plasmodium falciparum, 3D7, P. falciparum, 72 h, screen at 2 μg/mL, replicate 1, read-out: Pf_72h_%Growth_Rep1
# [19] = Plasmodium falciparum, 3D7, P. falciparum, 72 h, screen at 2 μg/mL, replicate 2, read-out: Pf_72h_%Growth_Rep2
# [20] = Plasmodium falciparum, 3D7, P. falciparum, 120 h, screen at 2 μg/mL, replicate 1, read-out: Pf_120h_%Growth_Rep1
# [21] = Plasmodium falciparum, 3D7, P. falciparum, 120 h, screen at 2 μg/mL, replicate 2, read-out: Pf_120h_%Growth_Rep2
structure (smiles),measurement,setting,value
COC(=O)C1=COC(C)C2CN3CCc4c([nH]c5cc(OC)c(OC)cc45)C3CC12 (stereo not drawn) [BIA-I1957],Pf_72h_%Growth_Rep1,[1]; [4],25.00%
same,Pf_72h_%Growth_Rep2,[1]; [5],24.20%
same,Tg_72h_%Growth_Rep1,[2]; [6],168.01%
same,Tg_72h_%Growth_Rep2,[2]; [7],105.99%
same,Pf_120h_%Growth_Rep1,[3]; [8],15.82%
same,Pf_120h_%Growth_Rep2,[3]; [9],-7.23%
CCC(=O)N[C@H](COC(C)=O)[C@H](O)c1ccc([N+](=O)[O-])cc1 [Corynecin V],Pf_72h_%Growth_Rep1,[1]; [10],87.31%
same,Pf_72h_%Growth_Rep2,[1]; [11],90.66%
same,Tg_72h_%Growth_Rep1,[2]; [12],157.61%
same,Tg_72h_%Growth_Rep2,[2]; [13],102.11%
same,Pf_120h_%Growth_Rep1,[3]; [14],81.24%
same,Pf_120h_%Growth_Rep2,[3]; [15],97.66%
C[C@H]1CC[C@H]2[C@@H](C=C[C@@H]3[C@H]4[C@@H](C)O[C@]5(O)[C@@H](CO)N(C)C(=O)[C@]45C(=O)[C@@]32C)C1 [Fusarisetin A],Pf_72h_%Growth_Rep1,[1]; [16],74.99%
same,Pf_72h_%Growth_Rep2,[1]; [17],87.91%
same,Tg_72h_%Growth_Rep1,[2]; [16],159.47%
same,Tg_72h_%Growth_Rep2,[2]; [17],97.52%
same,Pf_120h_%Growth_Rep1,"[3]; library screen at 2 μg/mL, 120 h, % growth, replicate 1",74.69%
same,Pf_120h_%Growth_Rep2,"[3]; library screen at 2 μg/mL, 120 h, % growth, replicate 2",108.30%
N[C@H](CO)[C@H](O)c1ccc([N+](=O)[O-])cc1 [Chloramphenicol base],Pf_72h_%Growth_Rep1,[1]; [10],86.96%
same,Pf_72h_%Growth_Rep2,[1]; [11],86.58%
same,Tg_72h_%Growth_Rep1,[2]; [12],134.60%
same,Tg_72h_%Growth_Rep2,[2]; [13],99.67%
same,Pf_120h_%Growth_Rep1,[3]; [14],102.72%
same,Pf_120h_%Growth_Rep2,[3]; [15],92.34%
COc1cc(C)c(C(=O)Oc2cc(C)c(C(=O)O)c(O)c2)c(O)c1 [Evernic acid],activity at 2 µg/mL,"[1]; Plasmodium falciparum, 3D7, library screen at 2 μg/mL, 72 h, % growth, replicate 1, read-out: Pf_72h_%Growth_Rep1",86.3%
same,activity at 2 µg/mL,"[1]; Plasmodium falciparum, 3D7, library screen at 2 μg/mL, 72 h, % growth, replicate 2, read-out: Pf_72h_%Growth_Rep2",86.5%
same,percent parasite growth at 2 µg/mL,"[2]; Toxoplasma gondii, 72 h, library screen at 2 μg/mL, 72 h, % growth, replicate 1; read-out: Tg_72h_%Growth_Rep1",133%
same,percent parasite growth at 2 µg/mL,"[2]; Toxoplasma gondii, 72 h, library screen at 2 μg/mL, 72 h, % growth, replicate 2; read-out: Tg_72h_%Growth_Rep2",102%
same,activity at 2 µg/mL,"[3]; Plasmodium falciparum, 3D7, library screen at 2 μg/mL, 120 h, % growth, replicate 1, read-out: Pf_120h_%Growth_Rep1",97.5%
same,activity at 2 µg/mL,"[3]; Plasmodium falciparum, 3D7, library screen at 2 μg/mL, 120 h, % growth, replicate 2, read-out: Pf_120h_%Growth_Rep2",94.9%
COC1=CC(=O)C[C@@H](C)[C@]12Oc1c(Cl)c(OC)cc(OC)c1C2=O [BIA-G1212],Pf_72h_%Growth_Rep1,[1]; [4],92.41%
same,Pf_72h_%Growth_Rep2,[1]; [5],108.96%
same,Tg_72h_%Growth_Rep1,[2]; [6],123.15%
same,Tg_72h_%Growth_Rep2,[2]; [7],96.50%
same,Pf_120h_%Growth_Rep1,[3]; [8],92.82%
same,Pf_120h_%Growth_Rep2,[3]; [9],104.36%
COC[C@H]1OC(=O)c2coc3c2[C@@]1(C)C1=C(C3=O)[C@@H]2CCC(=O)[C@@]2(C)C[C@H]1OC(C)=O [Wortmannin],activity at 2 µg/mL,[1]; [18],88.8%
same,activity at 2 µg/mL,[1]; [19],119%
same,percent parasite growth at 2 µg/mL,"[2]; Toxoplasma gondii; T. gondii, 72 h, screen at 2 μg/mL, replicate 1; read-out: Tg_72h_%Growth_Rep1",97.3%
same,percent parasite growth at 2 µg/mL,"[2]; Toxoplasma gondii; T. gondii, 72 h, screen at 2 μg/mL, replicate 2; read-out: Tg_72h_%Growth_Rep2",76.4%
same,activity at 2 µg/mL,[3]; [20],109%
same,activity at 2 µg/mL,[3]; [21],96.5%
"CS(=O)(=O)c1ccc([C@@H](O)[C@@H](CO)NC(=O)C(Cl)Cl)cc1 [Thiamphenicol, reference compound]",activity at 2 µg/mL,"[1]; Plasmodium falciparum, 3D7; P. falciparum, 2 μg/mL, 72 h; read-out: 1) Growth (%) at 72 h",49.5%
same,activity at 2 µg/mL,[1]; [18],37.6%
same,activity at 2 µg/mL,[1]; [19],61.4%
same,percent parasite growth at 2 µg/mL,"[2]; Toxoplasma gondii, 72 h, T. gondii, 72 h, screen at 2 μg/mL, replicate 1; read-out: Tg_72h_%Growth_Rep1",106%
same,percent parasite growth at 2 µg/mL,"[2]; Toxoplasma gondii, 72 h, T. gondii, 72 h, screen at 2 μg/mL, replicate 2; read-out: Tg_72h_%Growth_Rep2",98%
same,3) Fold change (72 h/120 h),"[3]; P. falciparum, growth at 72 h / growth at 120 h, 2 μg/mL",2.5
same,activity at 2 µg/mL,"[3]; Plasmodium falciparum, 3D7; P. falciparum, 2 μg/mL, 120 h; read-out: 2) Growth (%) at 120 h",19.8%
same,activity at 2 µg/mL,[3]; [20],27.2%
same,activity at 2 µg/mL,[3]; [21],12.3%
